Experiments:
[1] = Part B: PK of single-dose fruquintinib alone and with rifampin (CYP3A induction); type: in vivo, human; conditions: for AUC(0-inf) / AUC(0-t) / Cmax / half-life / Tmax / t1/2: fruquintinib in plasma; for AUC(0-inf) / AUC(0-t) / Cmax / half-life / Tmax / t1/2 / CL/F (apparent oral clearance): Part B; for AUC(0-inf) / AUC(0-t) / Cmax / half-life / t1/2 / CL/F (apparent oral clearance): arithmetic mean (SD); for half-life / Tmax: plasma; for Tmax: median (minimum‐maximum), read-out: tmax; for CL/F (apparent oral clearance): fruquintinib
Description: (§1) This was a single‐center, open‐label, 2‐part (Part A and Part B), 2‐period, fixed‐sequence study conducted in healthy male and female subjects. Parts A and B evaluated the effect of the CYP3A inhibitor itraconazole and the CYP3A inducer rifampin on the PK profile of fruquintinib, respectively. Each part consisted of a screening phase, a treatment phase (Period 1 and Period 2), and an end‐of‐study (EOS) phase. Screening occurred within 21 days before the first study drug administration. There was at least a 14‐day washout of fruquintinib between treatment periods. PK samples were collected before dosing and over 168 hours following the fruquintinib dose in Part A (with itraconazole) and Part B (with rifampin). Part A and Part B were enrolled independently.
In Part B, subjects were administered fruquintinib alone in Treatment Period 1 and in combination with rifampin in Treatment Period 2. Study Day 1 was considered as the start of Treatment Period 1, and Study Day 8 was considered as the start of Treatment Period 2. On Study Day 1, a single dose of fruquintinib 5 mg by mouth was administered under fasted conditions, and on Study Day 15, a single dose of fruquintinib 5 mg was administered by mouth under fasted conditions alongside rifampin. Starting on Study Day 8, rifampin 600 mg was dosed by mouth once daily for 14 consecutive days, 7 days before fruquintinib dosing and 6 days after fruquintinib dosing, to ensure that induction was maintained throughout the PK sampling period. Subjects therefore received rifampin from Study Day 8 to Study Day 21. Absorption of rifampin is reduced by approximately 30% when the drug is ingested with food.[13] Therefore, rifampin was administered at least 1 hour before breakfast when given alone and under fasted conditions when administered with fruquintinib. Breakfast was given at least 1 hour after the rifampin doses on Study Days 8‐14 and Study Days 16‐21. On Study Day 15, subjects received both treatments under fasted conditions, and rifampin was administered 1hour before administration of a single dose of fruquintinib 5 mg by mouth. Subjects were discharged after completion of EOS procedures on Study Day 22 or at early withdrawal.
(§2) Blood samples for determination of fruquintinib and metabolite M11 plasma concentrations were collected before dosing and at 0.5, 1, 1.5, 2, 3, 4, 6, 8, 12, 24, 36, 48, 72, 96, 120, 144, and 168 hours after fruquintinib dosing. Plasma samples were analyzed by LabCorp Bioanalytical (Indianapolis, IN) using a validated liquid chromatography with tandem mass spectrometry assay method with an analytical range of 1.00 ng/mL (lower limit of quantitation) to 750 ng/mL (upper limit of quantitation) for both fruquintinib and M11.[6] Interrun variability was 6.3% or less and 13.8% or less for fruquintinib and M11, respectively. Quality control samples at 4 concentrations (3, 30, 300, and 600 ng/mL) were assayed along with study samples, and the bias quality control sample concentrations deviated by ±2.0% and ±2.7% from the nominal concentrations for fruquintinib and M11, respectively.
(§3) PK parameters were determined by noncompartmental analysis and included maximum plasma concentration (Cmax); time to reach Cmax (tmax); area under the plasma concentration‐time curve (AUC) from time 0 to the time of the last measurable concentration (AUC0‐t); AUC from time 0 to infinity (AUC0‐inf); half‐life (t1/2); and the metabolite‐to‐parent ratios for Cmax, AUC0‐t, and AUC0‐inf. Apparent oral clearance and volume of distribution were also estimated for fruquintinib.
For Part A, the effect of itraconazole based on the PK parameters of fruquintinib was evaluated using a linear mixed‐effect model with treatment (ie, fruquintinib with itraconazole [test] and fruquintinib alone [reference]) as fixed effects and subject as a random effect. A similar inferential analysis was performed for Part B, but fruquintinib with rifampin was the test group. […]

[2] = Part A: PK of single-dose fruquintinib alone and with itraconazole (CYP3A inhibition); type: in vivo, human; conditions: for AUC(0-inf) / AUC(0-t) / Tmax / Cmax / half-life / t1/2: fruquintinib in plasma; for AUC(0-inf) / AUC(0-t) / Tmax / Cmax / half-life / t1/2 / CL/F (apparent oral clearance): Part A, n = 14; for AUC(0-inf) / AUC(0-t) / Cmax / half-life / t1/2 / CL/F (apparent oral clearance): arithmetic mean (SD); for Tmax: median (minimum‐maximum); for half-life: plasma; for CL/F (apparent oral clearance): fruquintinib
Description: as §1
In Part A, subjects were administered fruquintinib alone in Treatment Period 1 and in combination with itraconazole in Treatment Period 2. Study Day 1 was considered the start of Treatment Period 1, and Study Day 15 was considered the start of Treatment Period 2. On Study Day 1, subjects received a single dose of fruquintinib 5 mg by mouth under fasted conditions (subjects fasted for at least 10 hours before fruquintinib dosing and 4 hours after), and on Study Day 19 subjects received a second single dose of fruquintinib 5 mg by mouth under fasted conditions, alongside itraconazole. On Study Day 15, subjects began a regimen of itraconazole 200 mg by mouth twice a day, followed by once daily dosing on Study Days 16‐25. A dose of 200 mg was selected, with a loading dose as part of a 5‐day lead‐in (twice daily for 1 day, once daily for 4 days) to achieve appropriate inhibition of CYP3A before dosing with fruquintinib.[10] Once‐daily dosing of itraconazole for an additional 5 days throughout the fruquintinib PK sampling period was continued to maintain CYP3A inhibition.[11]
As itraconazole oral bioavailability is maximal when the capsules are taken immediately after a full meal,[12] it was administered under fed conditions except when coadministered with fruquintinib on Study Day 19. Itraconazole doses were administered 30 minutes after the start of breakfast on Study Days 15‐18 and Study Days 20‐25. On Study Day 19, subjects received both treatments under fasted conditions, and itraconazole was administered 1 hour before administration of a single dose of fruquintinib 5 mg by mouth. Subjects were discharged after completion of EOS procedures on Study Day 26 or at early withdrawal.
as §2
as §3, with “fruquintinib. […]” for “fruquintinib.”

[3] = both sexes, human, oral, fruquintinib 5 mg + rifampin 600 mg, n = 13
[4] = both sexes, human, oral, fruquintinib alone 5 mg, n = 13
[5] = fruquintinib 5 mg + rifampin 600 mg, n = 13
[6] = fruquintinib alone 5 mg, n = 13
[7] = both sexes, human, oral, fruquintinib 5 mg + itraconazole 200 mg
[8] = both sexes, human, oral, fruquintinib alone 5 mg
[9] = fruquintinib 5 mg + itraconazole 200 mg

Question: With `CNC(=O)c1c(C)oc2cc(Oc3ncnc4cc(OC)c(OC)cc34)ccc12` [Fruquintinib] as the compound, how does the AUC(0-inf) [1, 3] read?
Answer: Its AUC(0-inf) is 2070 ng·h/mL.

Question: And the AUC(0-t) [1, 3]?
Answer: Its AUC(0-t) is 2020 ng·h/mL.

Question: What about the Cmax ([1]; both sexes, human, oral, fruquintinib 5 mg + rifampin 600 mg, n = 13, read-out: Cmax) of the same compound?
Answer: The Cmax was 108 ng/mL.

Question: What about the AUC(0-inf) [1, 4] of the same compound?
Answer: The AUC(0-inf) was 5890 ng·h/mL.

Question: What about the AUC(0-t) [1, 4] of the same compound?
Answer: The AUC(0-t) was 5640 ng·h/mL.

Question: And the half-life ([1]; both sexes, human, oral, 5 mg, fruquintinib alone 5 mg, n = 13)?
Answer: Its half-life is roughly 34 h.

Question: And the Tmax ([1]; both sexes, human, oral, 5 mg, fruquintinib alone 5 mg, n = 14)?
Answer: Its Tmax is 3.33 h.

Question: And the half-life [1, 3]?
Answer: Its half-life is roughly 14 h.

Question: And the Tmax [1, 3]?
Answer: Its Tmax is 3 h.

Question: And the “reduction of fruquintinib AUCs (AUC0‐t and AUC0‐inf)” value ([1]; coadministration with rifampin versus fruquintinib alone)?
Answer: Its value is 65%.

Question: What about the t1/2 [1, 5] of the same compound?
Answer: Its t1/2 is 14.0 (3.06) hour.

Question: And the t1/2 [1, 6]?
Answer: The t1/2 was 33.9 (7.76) hour.

Question: And the Cmax ([1]; fruquintinib alone, single 5 mg by mouth, fasted, n = 14)?
Answer: Its Cmax is 123 (25.5) ng/mL.

Question: And the “CL/F (apparent oral clearance)” value [1, 5]?
Answer: Its value is 41.9 (7.46) mL/min.

Question: What about the “CL/F (apparent oral clearance)” value [1, 6] of the same compound?
Answer: The value was 14.5 (2.22) mL/min.

Question: What about the AUC(0-inf) [2, 7] of the same compound?
Answer: Its AUC(0-inf) is 6460 ng·h/mL.

Question: And the AUC(0-t) [2, 7]?
Answer: Its AUC(0-t) is 6040 ng·h/mL.

Question: What about the Tmax [2, 7] of the same compound?
Answer: The Tmax was 4 h.

Question: And the AUC(0-inf) [2, 8]?
Answer: Its AUC(0-inf) is 5960 ng·h/mL.

Question: What about the AUC(0-t) [2, 8] of the same compound?
Answer: The AUC(0-t) was 5730 ng·h/mL.

Question: What about the Tmax [2, 8] of the same compound?
Answer: The Tmax was 2 h.

Question: And the Cmax ([2]; both sexes, human, oral, fruquintinib alone, single 5 mg by mouth, fasted, read-out: Cmax)?
Answer: Its Cmax is 133 ng/mL.

Question: And the half-life ([2]; both sexes, human, oral, 5 mg, fruquintinib alone 5 mg)?
Answer: The half-life was roughly 34 h.

Question: And the half-life [2, 7]?
Answer: Its half-life is roughly 41 h.

Question: And the “increase of fruquintinib AUCs” value ([2]; coadministration with itraconazole versus fruquintinib alone)?
Answer: The value was “approximately 10%”.

Question: What about the “delay of median tmax of fruquintinib” value ([2]; following coadministration of itraconazole) of the same compound?
Answer: The value was 2 h.

Question: And the Cmax [2, 9]?
Answer: The Cmax was 122 (22.8) ng/mL.

Question: What about the t1/2 [2, 9] of the same compound?
Answer: The t1/2 was 41.4 (5.96) hour.

Question: And the t1/2 ([2]; fruquintinib alone 5 mg)?
Answer: Its t1/2 is 33.9 (6.96) hour.

Question: And the “CL/F (apparent oral clearance)” value [2, 9]?
Answer: The value was 13.3 (2.59) mL/min.

Question: What about the “CL/F (apparent oral clearance)” value ([2]; fruquintinib alone 5 mg) of the same compound?
Answer: Its value is 14.9 (4.14) mL/min.
